Assays:
[1] = Adsorption of polysorbate 80 and TnBP by the multilayer film of the 75 mL flexible bag (HPLC)
[2] = Distribution of the concentration of Triton X-100 in a 50 L bag (RP-HPLC); assay type: physicochemical; conditions: 1% Triton X-100 in purified water
[3] = Adsorption of Triton X-100 by the multilayer film of the 75 mL flexible bag (HPLC); assay type: physicochemical; conditions: 120 minutes
Experimental: In parallel, a negative control was carried out, repeating the experiment in a 0.5 litre glass flask filled with 316 mL of a 1% Triton X-100® solution. […] Samples were taken after 0 and 120 minutes.

[4] = Bag according to the invention, 30 min, 25±3° C.
[5] = Bag according to the invention, 1 hour, 25±3° C.
[6] = Bag according to the invention, 2 hours, 25±3° C.

Substance	adsorption by the bag ([1]; 75 mL flexible bag, 2 hours, 25±3° C.)	Polysorbate 80 Concentration ([1]; Bag according to the invention, 0 min, 25±3° C.) [mg/L]	Polysorbate 80 Adsorption with respect to T0 [1, 4] [%]	Polysorbate 80 Concentration [1, 4] [mg/L]	Polysorbate 80 Adsorption with respect to T0 [1, 5] [%]	Polysorbate 80 Concentration [1, 5] [mg/L]	Polysorbate 80 Adsorption with respect to T0 [1, 6] [%]	Polysorbate 80 Concentration [1, 6] [mg/L]	Polysorbate 80 Concentration ([1]; Glass flask (negative control), 30 min) [mg/L]	concentration after 2 hours of incubation ([1]; in the bag or in the glass flask)	greatest difference observed between the lower and higher concentrations measured ([2]; 0 to 120 minutes) [%]	difference in concentration of Triton X-100 between the upper part and the bottom of the bag ([2]; stirring 40 rpm) [%]	reduction of the concentration of Triton X-100 ([3]; 0.5 litre glass flask (negative control), 1% solution, magnetic stirring) [%]	adsorption of the Triton X-100 by the bag ([3]; 75 mL flexible bag, 1% (w/w) solution)	reduction of the concentration of Triton X-100 ([3]; 75 mL flexible bag, 1% (w/w) solution, orbital stirring, 20±5° C.) [%]
polyethylene glycol monooleate [Polysorbate 80]	no significant adsorption	11147	−2.3	11408	−3.3	11519	−2.6	11432	10374	stable	–	–	–	–	–
polyethylene glycol tert-octylphenyl ether [Triton X-100®]	–	–	–	–	–	–	–	–	–	–	7.90	2.7	3.1	no significant adsorption	5

From patent publication US20200032163A1, “Method for the Virus Inactivation of a Preparation of Monoclonal Antibodies” (Laboratoire Francais du Fractionnement et des …, priority 2016, published 2020)
